Values of other authors in patent US20030114418A1, “Method for the treatment and prevention of pain and inflammation with glucosamine and a cyclooxygenase-2 selective inhibitor and compositions therefor” (Pharmacia Corporation, priority 2001, published 2003).

Assays:
[1] = test system: human chondrocytes
[2] = test system: knee osteoarthritis; conditions: patients with knee osteoarthritis, 1500 mg/day, 3 years
[3] = test system: Cox-2

Row | Structure (SMILES) | selectivity for the inhibition of Cox-2 versus Cox-1 [3] | other results
1 | CC(=O)N[C@H]1C(O)O[C@H](CO)[C@@H](O)[C@@H]1O (stereo partly shown) [N-acetylglucosamine] |  | effect on il-1beta-mediated activation of human chondrocytes [1]: prevent il-1beta-mediated activation of human chondrocytes
2 | N[C@H]1C(O)O[C@H](CO)[C@@H](O)[C@@H]1O.O=S(=O)(O)O (stereo partly shown) [glucosamine sulfate] |  | joint-space loss [2]: no significant joint-space loss
3 | CC1(C)CC[C@]2(C(=O)O)CC[C@]3(C)C(=CC[C@@H]4[C@@]5(C)CC[C@H](O)C(C)(C)[C@@H]5CC[C@]43C)[C@@H]2C1 [oleanic acid] | not substantially more selective for the inhibition of Cox-2 than for Cox-1 | 
4 | C[C@H]1[C@H](C)CC[C@]2(C(=O)O)CC[C@]3(C)C(=CC[C@@H]4[C@@]5(C)CC[C@H](O)C(C)(C)[C@@H]5CC[C@]43C)[C@H]12 [ursolic acid] | not substantially more selective for the inhibition of Cox-2 than for Cox-1 | 
